In patent publication US8044095B2, “Mixture of catechins or rather polyphenols extracted from chinese green tea or other vegetables for the prevention of prostate cancer and for the treatment of prostate hypertrophy (BPH)” (Genprofiler s.r.l., priority 2004, dated 2011):

Tests used:
[1] = in vivo; cited from earlier work
[2] = test system: PNT1a; assay: Dose-response growth study in SV40-immortalized human prostate epithelial cells (PNT1a), compared with PC-3; type: cell-based; conditions: PNT1a versus PC-3 cells
[3] = test system: normal human prostate epithelial cells (EPIT); assay: Dose-response growth study in normal human prostate epithelial cells (EPIT); type: cell-based; conditions: increasing quantities of EGCG, cells in culture
[4] = test system: prostate cancer in rats TRAMP; conditions: rat, in vivo
Description: To show the validity of this hypothesis we worked on a preclinical animal model of […]. One of the more important preclinical models for the study of prostate tumor in vivo consists of transgenic rats TRAMP. These animals, when recombinant homozygotes develop prostate cancer with 100% probability in the adult stage. Progress of the illness recapitulates the essential phases of onset and progress of the human ailment. Indeed, it begins with lesions of the Prostate Intraepithelial Neoplasia (PIN) type to then give full blown neoplastic histological lesions, evolve subsequently towards androgen-resistant and aggressive phenotypes, then originating extraprostate and metastatic lesions in the terminal phase. […] Reduction of the onset of this neoplasia in treated animals was 80% (only 20 cases of neoplasia in 100 against 100 out of 100 in untreated animals).

Row | Compound | half-life in plasma [1] | IC50 of EGCG in PNT1a relative to PC-3 [2] | growth of EPIT [3] | adverse or collateral effect in vitro and in the animal model [4]
1 | O=C(O[C@@H]1Cc2c(O)cc(O)cc2O[C@@H]1c1cc(O)c(O)c(O)c1)c1cc(O)c(O)c(O)c1 [EGCG, (−)-epigallocatechina-3-gallato] | over 5 hours | very lower than in PC-3 | not modified significantly | 
2 | catechins |  |  |  | did not witness any adverse or collateral effect
